# Active and inactive are the calls of the source. The calls are words filed in the database; no cut-off is given here.
# Key:
# [1] = target: T1, Bile acid receptor (Homo sapiens, UniProt Q96RI1); experiment: Antagonist activity at FXR (unknown origin) expressed in HEK293T cells cotransfected with pCMV-Script-hFXR/pGL4.11-hSHP-Luciferase incubated for 24 hrs in presence of GW4064 by Steady-glo luciferase assay; assay type: cell-based
# T1 sequence (Q96RI1 whole entry): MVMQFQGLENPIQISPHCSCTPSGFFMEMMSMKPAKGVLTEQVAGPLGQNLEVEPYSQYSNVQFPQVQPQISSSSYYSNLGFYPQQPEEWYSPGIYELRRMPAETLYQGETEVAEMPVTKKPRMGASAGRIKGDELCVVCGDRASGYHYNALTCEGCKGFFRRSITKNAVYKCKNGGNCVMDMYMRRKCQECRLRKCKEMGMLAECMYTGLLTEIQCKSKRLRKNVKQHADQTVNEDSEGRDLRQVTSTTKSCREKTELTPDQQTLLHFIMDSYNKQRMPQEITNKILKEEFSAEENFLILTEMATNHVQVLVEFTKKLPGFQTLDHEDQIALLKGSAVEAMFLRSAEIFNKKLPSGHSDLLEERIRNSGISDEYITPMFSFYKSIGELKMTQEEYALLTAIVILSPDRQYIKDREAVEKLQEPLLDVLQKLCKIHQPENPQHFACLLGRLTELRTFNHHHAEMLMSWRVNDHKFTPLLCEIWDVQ
# [2] = Cytotoxicity against HEK293T cells cotransfected with pCMV-Script-hFXR/pGL4.11-hSHP-Luciferase incubated for 24 hrs in presence of GW4064 by celltiter-blue cell viability assay; assay type: toxicity, cell-based, HEK-293T; conditions: human
# [3] = target: T2, G-protein coupled bile acid receptor 1 (Homo sapiens, UniProt Q8TDU6); experiment: Agonist activity against TGR5 (unknown origin); assay type: functional
# T2 sequence (Q8TDU6 whole entry): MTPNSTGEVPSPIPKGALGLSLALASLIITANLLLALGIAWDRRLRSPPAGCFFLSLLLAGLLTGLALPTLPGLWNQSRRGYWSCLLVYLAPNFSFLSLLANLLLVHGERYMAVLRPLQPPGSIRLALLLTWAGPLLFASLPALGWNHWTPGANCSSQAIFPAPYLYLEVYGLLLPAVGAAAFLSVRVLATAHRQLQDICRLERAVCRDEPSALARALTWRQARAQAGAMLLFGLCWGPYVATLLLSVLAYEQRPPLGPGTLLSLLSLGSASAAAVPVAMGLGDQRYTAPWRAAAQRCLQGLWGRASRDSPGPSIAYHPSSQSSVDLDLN
# [4] = target: T3, Bile acid receptor (Homo sapiens) (UniProt Q96RI1); experiment: Agonist activity against FXR (unknown origin) at upto 100 uM; conditions: filed as agonist
# T3 sequence (whole entry): T1 sequence (Q96RI1 whole entry)
# [5] = target: T4, Bile acid receptor (Mus musculus) (UniProt Q60641); experiment: In vivo antagonist activity against FXR in microbeta depleted mouse assessed as reduction in taurocholic acid induced Shp mRNA expression in ileum at 10 mg/kg, po incubated for 2 to 48 hrs; assay type: functional, organism-based; conditions: time 2-48 hrs
# T4 sequence (whole entry): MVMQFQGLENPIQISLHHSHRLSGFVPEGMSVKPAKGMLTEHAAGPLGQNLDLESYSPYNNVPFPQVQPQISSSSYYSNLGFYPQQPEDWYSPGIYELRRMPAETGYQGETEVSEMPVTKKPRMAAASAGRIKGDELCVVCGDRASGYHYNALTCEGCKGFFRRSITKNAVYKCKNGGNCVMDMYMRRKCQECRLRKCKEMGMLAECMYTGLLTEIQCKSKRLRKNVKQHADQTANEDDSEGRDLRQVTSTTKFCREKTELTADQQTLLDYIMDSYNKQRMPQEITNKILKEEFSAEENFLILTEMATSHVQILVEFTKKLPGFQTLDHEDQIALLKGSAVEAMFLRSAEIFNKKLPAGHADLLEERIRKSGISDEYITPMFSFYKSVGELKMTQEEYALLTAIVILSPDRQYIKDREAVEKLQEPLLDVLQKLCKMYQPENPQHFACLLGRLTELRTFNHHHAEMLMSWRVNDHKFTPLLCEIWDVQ
# [6] = target: T4, Bile acid receptor (Mus musculus); experiment: In vivo antagonist activity against FXR in microbeta depleted mouse assessed as reduction in taurocholic acid induced Fgf15 mRNA expression in ileum at 10 mg/kg, po incubated for 2 to 48 hrs; assay type: functional, organism-based; conditions: time 2-48 hrs
# [7] = target: T4, Bile acid receptor (Mus musculus); experiment: In vivo antagonist activity against FXR in microbeta depleted mouse assessed as reduction in taurocholic acid induced FXR mRNA expression in hepatic signaling at 10 mg/kg, po incubated for 2 to 48 hrs; assay type: functional, organism-based; conditions: time 2-48 hrs
# [8] = test system: Mus musculus; experiment: Anti-NASH activity in GAN diet-induced […] mouse assessed as reduction of dihydroceramide level in serum administered orally for 12 weeks; assay type: functional, organism-based; conditions: route po
# [9] = test system: Mus musculus; experiment: Anti-NASH activity in GAN diet-induced […] mouse assessed as reduction of glycosyl-ceramide level in serum administered orally for 12 weeks; assay type: functional, organism-based; conditions: route po
# [10] = test system: Mus musculus; experiment: Anti-NASH activity in GAN diet-induced […] mouse assessed as reduction of sphinogo-myelin level in serum administered orally for 12 weeks; assay type: functional, organism-based; conditions: route po
# [11] = test system: Mus musculus; experiment: Anti-NASH activity in GAN diet-induced […] mouse assessed as reduction of ceramide level in serum administered orally for 12 weeks; assay type: functional, organism-based; conditions: route po
# [12] = species: Mus musculus; experiment: Anti-NASH activity in GAN diet-induced […] mouse assessed as increase in hepatic bile acid synthesis; assay type: functional, organism-based
# [13] = species: Mus musculus; experiment: Anti-NASH activity in GAN diet-induced […] mouse assessed as reduction of bile acid pool size in ileum; assay type: functional, organism-based
# [14] = species: Mus musculus; experiment: Anti-NASH activity in GAN diet-induced […] mouse assessed as reduction in bile acid loss in cecum content; assay type: functional, organism-based
# [15] = species: Mus musculus; experiment: Anti-NASH activity in GAN diet-induced […] mouse assessed as bile acid level in serum; assay type: functional, organism-based
# [16] = species: Mus musculus; experiment: Anti-NASH activity in GAN diet-induced […] mouse assessed as bile acid level in gall bladder; assay type: functional, organism-based
Structure (SMILES),IC50 [1] [µM],IC50 at 24 h [2] [µM],EC50 [3] [µM],Activity [4],Activity [5],Activity [6],Activity [7],Activity [8],Activity [9],Activity [10],Activity [11],Activity [12],Activity [13],Activity [14],Activity [15],Activity [16]
CC(C)[C@@H]1CC[C@]2(C(=O)NCC(=O)O)CC[C@]3(C)[C@H](CC[C@@H]4[C@@]5(C)CC[C@@H](O)C(C)(C)[C@@H]5CC[C@]43C)[C@@H]12,74,> 100,> 100,Active,,,,,,,,,,,,
C[C@H](CCC(=O)NCC(=O)O)[C@H]1CC[C@H]2[C@@H]3[C@@H](O)C[C@@H]4C[C@H](O)CC[C@]4(C)[C@H]3CC[C@]12C [GLYCOURSODEOXYCHOLIC ACID],,> 100,,,Active,Active,Active,Active,Active,Active,Active,Active,Active,Active,Active,Active

# — ChEMBL document CHEMBL5096210, “Discovery of Betulinic Acid Derivatives as Potent Intestinal Farnesoid X Receptor Antagonists to Ameliorate Nonalcoholic Steatohepatitis” (J Med Chem, 2022)
